# Read-outs that look alike come from different tables or passages of the source.
# What was measured:
# [1] = system: T. brucei brucei Lister 427; assay: Potency assessment against T. brucei brucei Lister 427 bloodstream form (AlamarBlue, 72 h); format: cell-based, Trypanosoma brucei brucei; conditions: Trypanosoma brucei
# T. b. rhodesiense = assay: Potency assessment against T. b. rhodesiense EATRO3 bloodstream form (AlamarBlue, 72 h); format: cell-based, Trypanosoma brucei rhodesiense; conditions: Trypanosoma brucei, RHODESIENSE; for IC50: Table 2B, read-out: T. brucei rhod IC50, growth inhibition
# [2] = system: T. brucei gambiense, ELIANE strain; assay: Potency assessment against T. b. gambiense ELIANE bloodstream form; format: cell-based, Trypanosoma brucei gambiense; conditions: Trypanosoma brucei, GAMBIENSE; Table 3; read-out: EC50 T. b. gambiense ELIANE
# T. b. brucei Lister 927 = assay: Potency assessment against T. b. brucei Lister 927; format: cell-based, Trypanosoma brucei brucei; conditions: Trypanosoma brucei; Table 3
# Description: Assays were performed using the strain of T. brucei brucei Lister 427 adapted to the laboratory, and the human-infective strain T. b. rhodesiense (EATRO3 ETat1.2 TREU164 [37]). Both strains were grown and tested as bloodstream forms. To establish the EC50, cultures of Trypanosoma brucei and T. b. rhodesiense were treated with two-fold increasing concentrations of compounds (with similar DMSO increasing concentration as control). Cell populations were measured at 72 hours with an Infinite F200 microplate reader (Tecan Austria GmbH, Austria); the determination of cell viability was carried out by the established colorimetric technique AlamarBlue® with modifications, a 96-well plate format spectrophotometric assay which measures the ability of living cells to reduce resazurin [38,39]. Data obtained with T. b. brucei Lister 427 were confirmed by manual counting in a Neubauer chamber for a direct microscopic examination to rule out multinucleated phenotypes that could mask the colorimetric assays, as well as the subtraction of solvent background to dismiss a potential solvent-derived fluorescence. Pentamidine was used as drug control for potency comparison, and T. b. brucei Lister 927 strain was included in our experiments to evaluate the adaptation to medium for the different strains as a variable condition.
# L. major promastigotes [3] = assay: Potency assessment against Leishmania major promastigotes (growth, cell counting); format: cell-based; conditions: for EC50 / IC50: Leishmania major; for EC50: promastigotes, average of three replicates, read-out: Effective concentration (EC50) L. major; for activity against L. major promastigotes in words: highest concentration tested; for IC50: Table 2B, read-out: L. major Promastigote IC50, growth inhibition
# [4] = system: L. donovani axenic amastigotes; assay: Potency assessment against Leishmania donovani axenic amastigotes (growth, cell counting); format: cell-based; conditions: for EC50 / IC50: Leishmania donovani; for EC50: axenic amastigotes, average of three replicates, read-out: Effective concentration (EC50) L. donovani axenic amastigotes; for activity against L. donovani axenic amastigotes in words: highest concentration tested; for IC50: Table 2B, read-out: L. donovani Axenic Amastigote IC50, growth inhibition
# T. cruzi trypomastigotes = assay: T. cruzi intracellular replication in NIH/3T3 host cells (β-galactosidase, CPRG); format: cell-based, Trypanosoma cruzi; conditions: Trypanosoma cruzi; for EC50: NIH3T3, 96 h, trypomastigotes with 3T3 host cells, four days, three replicates within ±10.2%, read-out: Effective concentration (EC50) T. cruzi; for IC50: NIH3T3, Table 2B, read-out: T. Cruzi IC50, growth inhibition
# [5] = system: T. brucei brucei Lister 427 bloodstream cells; assay: Morphological and cell cycle alterations in T. brucei (flow cytometry); format: cell-based, Trypanosoma brucei brucei; conditions: 16 h, WYE-354 2 μM; for effect on cellular DNA content / cell cycle, T. b. brucei: PI-103 1 μM, Pp242 2 μM, NVP-BEZ235 100 nM
# Description: Flow cytometry was used to assess cell size and DNA content, to reveal a G1 arrest and inhibition of protein synthesis or G2 arrest and multinucleated cells. […]. After permeabilization with […], saponin (0.5 mg/mL final concentration), the culture was RNAse treated for 30 minutes (10 μg/mL final concentration) and stained with 20 μg/mL propidium iodide immediately before its acquisition in a FACscan cytometer. Cells incubated with equivalent concentration of drug solvent (DMSO) were included in each experiment as control population.
# L. major promastigotes [6] = assay: Cell size and DNA content analysis in Leishmania (flow cytometry); format: cell-based, Leishmania major
# Description: L. major log phase promastigotes were inoculated at a concentration of 10^6 cells/ml into media with compounds as indicated, and incubated overnight with varying drug concentrations to assess cell size and DNA content. For cell size, forward scatter of live promastigotes was measured by a FACS flow cytometer (Becton Dickinson), utilizing dye exclusion with 5 μg/ml propidium iodide (PI) to gate for live cells. DNA content was determined by flow cytometry using fixed and permeabilized L. major stained with PI as previously described, but reducing the incubation time with PI and RNase A from 1 hour to 30 minutes. Histogram analysis was performed using CellQuest 3.1 software (BD Bioscience).
# [7] = system: L. donovani promastigotes; assay: Potency assessment against Leishmania donovani promastigotes (growth, cell counting); format: cell-based; conditions: Leishmania donovani; for IC50: Table 2B, read-out: L. donovani Promastigote IC50, growth inhibition; for EC50: promastigotes, average of three replicates, read-out: Effective concentration (EC50) L. donovani promastigotes
# Leishmania = Leishmania growth inhibition summarised across both species and stages; format: cell-based; conditions: range over L. major and L. donovani, promastigotes and amastigotes
# human cells = conditions: literature, Table 1; read-out: Inhibition of Cell Growth EC50; cited from earlier work
# mTOR = mTOR (Homo sapiens, UniProt P42345); conditions: cited from earlier work; for mTOR IC50 in words: mammalian cells / literature
# PI3K p110α = PI3K p110α (Homo sapiens, UniProt P42336); conditions: human enzyme, Table 1; cited from earlier work
# [8] = bloodstream form, average of three replicates, read-out: Effective concentration (EC50) T. b. brucei
# [9] = bloodstream form, average of three replicates, read-out: Effective concentration (EC50) T. b. rhodesiense
# [10] = overnight, PI-103 4 μM, WYE-354 25 μM, NVP-BEZ235 0.5 μM (EC60-EC90)
# Chain of PI3K p110α (P42336 whole entry): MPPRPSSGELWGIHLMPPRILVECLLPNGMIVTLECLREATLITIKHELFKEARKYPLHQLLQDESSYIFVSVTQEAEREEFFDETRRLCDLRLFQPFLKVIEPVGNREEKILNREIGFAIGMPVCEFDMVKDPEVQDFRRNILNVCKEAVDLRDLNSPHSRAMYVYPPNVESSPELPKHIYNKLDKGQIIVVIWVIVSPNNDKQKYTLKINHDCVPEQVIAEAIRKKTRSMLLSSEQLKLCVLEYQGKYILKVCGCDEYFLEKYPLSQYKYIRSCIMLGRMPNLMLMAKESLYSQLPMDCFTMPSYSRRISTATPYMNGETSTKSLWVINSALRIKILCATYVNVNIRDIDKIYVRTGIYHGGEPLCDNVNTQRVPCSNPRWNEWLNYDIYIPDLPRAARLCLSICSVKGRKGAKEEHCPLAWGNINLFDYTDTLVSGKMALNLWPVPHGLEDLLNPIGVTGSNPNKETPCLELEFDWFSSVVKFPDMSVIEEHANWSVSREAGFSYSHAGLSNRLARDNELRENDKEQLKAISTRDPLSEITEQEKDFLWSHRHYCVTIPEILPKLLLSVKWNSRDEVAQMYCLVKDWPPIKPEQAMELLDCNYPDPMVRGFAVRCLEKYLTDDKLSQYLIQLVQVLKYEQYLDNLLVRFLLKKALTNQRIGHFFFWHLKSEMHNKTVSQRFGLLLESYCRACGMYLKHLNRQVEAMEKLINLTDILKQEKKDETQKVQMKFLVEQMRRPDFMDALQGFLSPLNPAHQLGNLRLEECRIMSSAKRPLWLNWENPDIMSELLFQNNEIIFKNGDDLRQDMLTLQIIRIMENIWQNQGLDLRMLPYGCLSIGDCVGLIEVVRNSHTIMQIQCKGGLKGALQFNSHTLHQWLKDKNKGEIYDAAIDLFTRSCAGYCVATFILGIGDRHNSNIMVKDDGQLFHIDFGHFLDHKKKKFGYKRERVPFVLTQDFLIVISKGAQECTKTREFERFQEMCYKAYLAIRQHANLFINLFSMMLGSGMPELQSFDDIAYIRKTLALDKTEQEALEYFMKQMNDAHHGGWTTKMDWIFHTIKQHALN
# Chain of PI3K p110α (P27986 whole entry partner): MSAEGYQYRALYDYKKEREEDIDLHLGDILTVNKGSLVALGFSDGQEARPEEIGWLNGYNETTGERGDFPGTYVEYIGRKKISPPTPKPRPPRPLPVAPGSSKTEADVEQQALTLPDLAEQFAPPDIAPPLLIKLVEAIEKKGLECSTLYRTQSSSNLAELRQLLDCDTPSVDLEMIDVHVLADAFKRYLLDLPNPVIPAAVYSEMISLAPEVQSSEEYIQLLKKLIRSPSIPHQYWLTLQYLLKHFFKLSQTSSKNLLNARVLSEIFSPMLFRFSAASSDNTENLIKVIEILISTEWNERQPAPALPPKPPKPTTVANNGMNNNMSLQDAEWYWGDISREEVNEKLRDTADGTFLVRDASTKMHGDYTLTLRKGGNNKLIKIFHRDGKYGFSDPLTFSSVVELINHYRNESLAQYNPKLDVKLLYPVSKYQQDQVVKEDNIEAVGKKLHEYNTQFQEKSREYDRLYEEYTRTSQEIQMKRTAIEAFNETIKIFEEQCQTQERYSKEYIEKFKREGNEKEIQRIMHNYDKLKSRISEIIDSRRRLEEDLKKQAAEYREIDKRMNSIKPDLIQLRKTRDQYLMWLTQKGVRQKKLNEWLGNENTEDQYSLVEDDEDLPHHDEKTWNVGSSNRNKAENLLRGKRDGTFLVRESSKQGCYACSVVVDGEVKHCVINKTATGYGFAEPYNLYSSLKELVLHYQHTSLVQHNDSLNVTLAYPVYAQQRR
structure (smiles),measurement,setting,value
N=C(N)c1ccc(OCCCCCOc2ccc(C(=N)N)cc2)cc1 [Pentamidine],EC50,"[1]; Table 3, read-out: EC50 T. b. brucei 427",4.2 ± 0.2 nM
same,EC50,"T. b. rhodesiense; Table 3, read-out: EC50 T. b. rhodesiense EATRO3",3.7 ± 0.4 nM
same,EC50,[2],2.5 ± 0.5 nM
same,EC50,T. b. brucei Lister 927,30.3 ± 10.4 nM
"O=c1cc(N2CCOCC2)oc2c(-c3ccccc3)cccc12 [LY294002, 2-(4-morpholinyl)-8-phenyl-4H-1-benzopyran-4-one]",EC50,L. major promastigotes [3],> 25 µM
same,activity against L. major promastigotes in words,L. major promastigotes [3],inactive
same,EC50,[4],> 5 µM
same,activity against L. donovani axenic amastigotes in words,[4],inactive
same,EC50,T. cruzi trypomastigotes,> 50 µM
same,EC50,[1]; [8],> 2000 nM
CCOc1ccccc1-c1nc(N2CCCCC2)c2oc3ncccc3c2n1 [NEU-0000364],IC50,T. cruzi trypomastigotes,> 50 µM
same,IC50,T. b. rhodesiense,> 5 µM
COc1cccc(-c2nc(N3CCCCC3)c3oc4ncccc4c3n2)c1 [NEU-0000289],IC50,L. major promastigotes [3],7.65 µM
same,IC50,[4],~20 µM
same,IC50,T. cruzi trypomastigotes,3.9 µM
CC(C)n1nc(-c2cc3cc(O)ccc3[nH]2)c2c(N)ncnc21 [Pp242],"effect on cellular DNA content / cell cycle, T. b. brucei",[5],G1 arrest
same,"effect on cell size and DNA content, L. major promastigotes",L. major promastigotes [6]; higher concentrations of Pp242,G2 arrest and increase in cell size
same,"effect on cell size and DNA content, L. major promastigotes",L. major promastigotes [6]; lower concentrations of Pp242,decrease in cell size and a G1 arrest
CC(C)(C)OC(=O)Nc1ccc(-c2nc(N3CCOCC3)c3cnn(C4CCN(Cc5ccccc5)CC4)c3n2)cc1 [NEU-00000234],IC50,L. major promastigotes [3],5.49 µM
same,IC50,[7],6.34 µM
same,IC50,[4],6.9 µM
same,IC50,T. b. rhodesiense,2.19 µM
CCOCCNc1nc(-c2cccc(OC)c2)nc2c1oc1ncccc12 [NEU-0000361],IC50,T. cruzi trypomastigotes,> 50 µM
same,IC50,T. b. rhodesiense,> 5 µM
"O=c1cc(N2CCNCC2)oc2c(-c3ccccc3)cccc12 [LY303511, 2-piperazinyl-8-phenyl-4H-1-benzopyran-4-one]",EC50,L. major promastigotes [3],> 25 µM
same,activity against L. major promastigotes in words,L. major promastigotes [3],inactive
same,EC50,[4],> 5 µM
same,activity against L. donovani axenic amastigotes in words,[4],inactive
same,EC50,T. cruzi trypomastigotes,> 10 µM
same,EC50,[1]; [8],> 2000 nM
Oc1ccccc1-c1nc(N2CCOCC2)c2cnn(C3CCN(Cc4ccccc4)CC3)c2n1 [NEU-00000231],IC50,L. major promastigotes [3],2.78 µM
same,IC50,[7],8.01 µM
same,IC50,[4],3.02 µM
same,IC50,T. b. rhodesiense,2.23 µM
Oc1cccc(-c2nc(N3CCOCC3)c3oc4ncccc4c3n2)c1 [PI-103],EC50,L. major promastigotes [3],0.32 ± 0.16 µM
same,EC50,[7],1.05 ± 0.28 µM
same,EC50,[4],0.62 ± 0.41 µM
same,EC50,T. cruzi trypomastigotes,> 25 µM
same,EC50,[1]; [8],214 ± 36 nM
same,EC50,[1]; read-out: activity against T. b. brucei cultures,200 nM
same,EC50,T. b. rhodesiense; [9],105 ± 10 nM
same,EC50,T. b. rhodesiense; read-out: activity against T. b. rhodesiense cultures,100 nM
same,"effect on cellular DNA content / cell cycle, T. b. brucei",[5],G1 arrest
same,"effect on cell size and DNA content, L. major promastigotes",L. major promastigotes [6]; [10],G1 arrest and a decrease in cell size
same,EC50,Leishmania; read-out: inhibition of Leishmania across both species and stages,320 to 1050 nM
same,EC50,human cells,500 nM
Nc1ccc(-c2nc(N3CCOCC3)c3cnn(C4CCN(Cc5ccccc5)CC4)c3n2)cc1 [NEU-00000233],IC50,L. major promastigotes [3],< 25 µM
same,IC50,[7],~25 µM
same,IC50,T. b. rhodesiense,3.7 µM
COc1cccc(-c2nc(N3CCOCC3)c3oc4ncccc4c3n2)c1 [NEU-0000288],IC50,L. major promastigotes [3],4.07 µM
same,IC50,[4],~20 µM
same,IC50,T. cruzi trypomastigotes,3.7 µM
CCOc1ccccc1-c1nc(N2CCOCC2)c2oc3ncccc3c2n1 [NEU-0000363],IC50,T. cruzi trypomastigotes,> 50 µM
same,IC50,T. b. rhodesiense,> 5 µM
COC(=O)Nc1ccc(-c2nc(N3CCOCC3)c3cnn(C4CCN(C(=O)OC)CC4)c3n2)cc1 [WYE-354],EC50,L. major promastigotes [3],4.1 ± 0.3 µM
same,EC50,[7],5.95 ± 0.84 µM
same,EC50,[4],6.1 ± 1.73 µM
same,EC50,T. cruzi trypomastigotes,> 10 µM
same,EC50,[1]; [8],580 ± 260 nM
same,EC50,T. b. rhodesiense; [9],780 ± 80 nM
same,"effect on cellular DNA content / cell cycle, T. b. brucei",[5],no significant variations in cell cycle
same,"effect on cell size, T. b. brucei",[5],small but noticeable reduction in cell size
same,"effect on cell size and DNA content, L. major promastigotes",L. major promastigotes [6]; [10],G1 arrest and a decrease in cell size
same,EC50,Leishmania; read-out: activity against Leishmania across both species and stages,4000 to 6000 nM
same,EC50,human cells,30 nM
same,IC50,"mTOR; human enzyme, Table 1",4 nM
same,mTOR IC50 in words,mTOR,low nanomolar
same,IC50,PI3K p110α,1000 nM
CCOCCNc1nc(-c2ccccc2)nc2c1oc1ncccc12 [NEU-0000292],IC50,L. major promastigotes [3],4 µM
same,IC50,[4],12.5 µM
same,IC50,T. cruzi trypomastigotes,> 50 µM
c1ccc(CN2CCC(n3ncc4c(N5CCOCC5)nc(-c5ccncc5)nc43)CC2)cc1 [NEU-00000232],IC50,L. major promastigotes [3],6.54 µM
same,IC50,[7],8.06 µM
same,IC50,[4],2.43 µM
same,IC50,T. b. rhodesiense,3.05 µM
c1ccc(-c2nc(N3CCCCC3)c3oc4ncccc4c3n2)cc1 [NEU-0000291],IC50,L. major promastigotes [3],> 10 µM
same,IC50,[4],> 10 µM
same,IC50,T. cruzi trypomastigotes,12 µM
c1ccc(-c2nc(N3CCOCC3)c3oc4ncccc4c3n2)cc1 [NEU-0000290],IC50,L. major promastigotes [3],> 20 µM
same,IC50,[4],> 20 µM
same,IC50,T. cruzi trypomastigotes,1.5 µM
COc1ccc(-c2nc(N3CCOCC3)c3oc4ncccc4c3n2)cc1 [NEU-0000365],IC50,T. cruzi trypomastigotes,> 50 µM
same,IC50,T. b. rhodesiense,> 5 µM
COc1ccc(-c2ccc3c(N4CCOCC4)nc(N4C[C@@H](C)O[C@@H](C)C4)nc3n2)cc1CO [Ku-0063794],EC50,L. major promastigotes [3],> 25 µM
same,activity against L. major promastigotes in words,L. major promastigotes [3],inactive
same,EC50,[4],> 5 µM
same,activity against L. donovani axenic amastigotes in words,[4],inactive
same,EC50,T. cruzi trypomastigotes,> 10 µM
same,EC50,[1]; [8],890 ± 140 nM
same,EC50,human cells,30 nM
"O=c1cc(N2CCOCC2)nc2c3ccccc3ccn12 [Compound 401, 2-(morpholin-1-yl)pyrimido[2,1-alpha]isoquinolin-4-one]",EC50,L. major promastigotes [3],> 25 µM
same,activity against L. major promastigotes in words,L. major promastigotes [3],inactive
same,EC50,[4],> 5 µM
same,activity against L. donovani axenic amastigotes in words,[4],inactive
same,EC50,T. cruzi trypomastigotes,> 10 µM
same,EC50,[1]; [8],> 10000 nM
same,EC50,human cells,1000 nM
same,mTOR IC50 in words,mTOR,low micromolar concentrations
same,IC50,PI3K p110α,> 100000 nM
CCOCCNc1nc(-c2cccc(O)c2)nc2c1oc1ncccc12 [NEU-0000362],IC50,T. cruzi trypomastigotes,> 50 µM
same,IC50,T. b. rhodesiense,> 1 µM
